Here are results for one compound from US12233047B2, “Pharmaceutical combination and use thereof” (ASCENTAGE PHARMA (SUZHOU) CO., LTD., priority 2019, dated 2025).

One test concerns the target T1, FLT3 (N841I) (Homo sapiens, UniProt P36888, N841I).
T1 construct: host or cells: T7 phage in E. coli (BL21-derived) or HEK-293
T1 sequence (P36888 27-993 N841I): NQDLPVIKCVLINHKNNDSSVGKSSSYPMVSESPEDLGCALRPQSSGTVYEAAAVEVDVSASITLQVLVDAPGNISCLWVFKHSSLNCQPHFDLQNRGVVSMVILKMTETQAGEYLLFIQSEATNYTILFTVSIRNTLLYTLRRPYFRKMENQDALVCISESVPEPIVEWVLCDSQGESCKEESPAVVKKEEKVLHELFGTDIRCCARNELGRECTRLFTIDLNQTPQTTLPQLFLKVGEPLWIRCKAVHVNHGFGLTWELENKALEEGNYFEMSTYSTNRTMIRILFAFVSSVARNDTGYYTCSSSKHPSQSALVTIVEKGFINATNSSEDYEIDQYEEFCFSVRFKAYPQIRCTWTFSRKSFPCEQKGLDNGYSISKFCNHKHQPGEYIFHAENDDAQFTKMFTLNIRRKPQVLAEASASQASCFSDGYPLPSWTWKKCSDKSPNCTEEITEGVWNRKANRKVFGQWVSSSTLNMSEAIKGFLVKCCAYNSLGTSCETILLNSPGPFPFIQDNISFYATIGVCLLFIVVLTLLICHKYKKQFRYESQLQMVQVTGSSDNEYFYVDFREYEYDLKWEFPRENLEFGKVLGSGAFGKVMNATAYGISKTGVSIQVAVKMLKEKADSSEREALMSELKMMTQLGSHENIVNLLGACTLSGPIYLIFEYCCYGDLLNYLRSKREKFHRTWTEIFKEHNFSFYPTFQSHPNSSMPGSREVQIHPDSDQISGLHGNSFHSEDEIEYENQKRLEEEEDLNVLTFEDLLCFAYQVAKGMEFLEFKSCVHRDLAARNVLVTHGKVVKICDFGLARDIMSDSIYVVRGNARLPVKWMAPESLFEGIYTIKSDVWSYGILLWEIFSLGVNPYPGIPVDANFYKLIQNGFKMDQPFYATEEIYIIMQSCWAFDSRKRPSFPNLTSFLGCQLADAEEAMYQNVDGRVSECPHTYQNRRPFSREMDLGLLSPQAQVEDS
Put plainly: KINOMEscan kinase binding assay, FLT3 (N841I). The method, then:
(§1) The kinase assay was conducted using KINOMEscan™.
(§2) Kinase-tagged T7 phage strains were grown in parallel in 24-well blocks in an E. coli host derived from the BL21 strain. E. coli were grown to log-phase and infected with T7 phage from a frozen stock (multiplicity of infection=0.4) and incubated with shaking at 32° C. until lysis (90-150 minutes). The lysates were centrifuged (6,000×g) and filtered (0.2 μm) to remove cell debris. The remaining kinases were produced in HEK-293 cells and subsequently tagged with DNA for qPCR detection. Streptavidin-coated magnetic beads were treated with biotinylated small molecule ligands for 30 minutes at room temperature to generate affinity resins for kinase assays. The liganded beads were blocked with excess biotin and washed with blocking buffer (SeaBlock (Pierce), 1% BSA, 0.05% Tween 20, 1 mM DTT) to remove unbound ligand and to reduce non-specific phage binding. Binding reactions were assembled by combining kinases, liganded affinity beads, and test compound (Compound 23) in 1× binding buffer (20% SeaBlock, 0.17×PBS, 0.05% Tween 20, 6 mM DTT). Test compound were prepared as 40× stocks in 100% DMSO and directly diluted into the assay. All reactions were performed in polypropylene 384-well plates in a final volume of 0.04 ml. […] The kinase concentration in the eluates was measured by qPCR. […]

In a further test the target is T2, FLT3 (R834Q) (Homo sapiens, UniProt P36888, R834Q).
T2 construct: host or cells: T7 phage in E. coli (BL21-derived) or HEK-293
T2 sequence (P36888 27-993 R834Q): T1 sequence (P36888 27-993 N841I) with R808Q, I815N
Put plainly: KINOMEscan kinase binding assay, FLT3 (R834Q). The method, then: as §1, §2

Molecules are shown by their SMILES. Numbering of substitutions follows the chain as printed.

Turning to `Cc1ccc(C(=O)Nc2ccc(CN3CCN(C)CC3)c(C(F)(F)F)c2)cc1C#Cc1cnc2[nH]ncc2c1` [Compound 23, 3-(2-(1H-pyrazolo[3,4-b]pyridin-5-yl)ethynyl)-4-methyl-N-(4-((4-methylpiperazin-1-yl)methyl)-3-(trifluoromethyl)phenyl)benzamide], the “% Ctrl@10 nM” value turned out to be 2.9 % Ctrl at FLT3 (N841I) (10 nM) and 23 % Ctrl on FLT3 (R834Q) (10 nM). The “% Ctrl@100 nM” value at FLT3 (N841I) (100 nM) was 0.05 % Ctrl; on FLT3 (R834Q) (100 nM), 15 % Ctrl.
